SMILES strings stand for the structures.

One test deals with MCF-7 cells. The experiment in a line: Cell viability, crystal violet colorimetric assay. It counts as cell-based. Conditions: 72 hrs; for IC50: tested at 0.02-0.1 mM, unstarred values. The procedure: (§1) Immortalised osteolytic metastatic breast cancer cell lines, a) hormone-dependent MCF-7 and b) hormone refractory MDA-MB231, together with the daughter line MDA-MB231TXSA were incubated with 5 gradual concentrations of compounds of the invention as described below. Cell viability was assessed with the crystal violet colorimetric assay and IC50s were evaluated.
(§2) Medium was removed from cell cultures and cells were fixed with 4% v/v formaldehyde for 5 mins at room temperature. Formalin was then removed and CV added for 10 mins at room temperature followed by several washes with dsH2O. Samples were allowed to dry overnight. The following day, 10% acetic acid was added for 15 mins and optical density at 620 nm was measured. Optical densities versus compound concentrations were plotted in graphs and IC50s estimated by linear regression analysis using the WorkOut (VictorX4) software.
MCF-7, MDA-MB231 and MDA-MB231TXSA cells were seeded in 96-well-plates and allowed to attach overnight. […]
(§3) Cells were cultured in the presence of the compounds for 72 hrs and viability was assessed on day 3 by crystal violet assay. The cell lines were selected for their high bone metastatic potential. The fluorescently transfected line MB231TXSA, derived from line MB231 is also used in animal studies (WP7).

A further test has as its system RAW264.7 cells. The experiment in a line: In vitro osteoclastogenesis of RAW264.7 (TRAP staining). The settings on record: RANKL-differentiated; γ-tocopherol at 1 μg/ml and 201 μg/ml; bpp(OEt) at increasing concentrations; FIG. 4. The test is classed as cell-based, murine. The procedure: (§4) Human peripheral blood mononuclear cells (PBMCs) and the RAW264.7 murine monocytic cell line were differentiated into osteoclast-like cells in the presence of RANKL plus M-CSF and have been used as model systems of osteoclastogenesis. Osteoclast-like cells, from Giant Cell Tumours (GCT) of bone specimens from three independent donors were used to investigate the effect of compounds of the invention on the bone resorbing activity of mature osteoclasts.
(§5) Cells were cultured in 96-well plates at a density of 1×10^4 cells/well in DMEM medium with 10% FCS, L-glutamine (2 mM) and Hepes (20 mM). Cells were allowed to attach for 4 hrs before treatment with RANKL (50 ng/ml) in the presence or absence of increasing concentrations of compounds of the invention as above. Medium and treatments were replaced on day three and TRAP activity determined on day 5. The overall number of viable cells were determined by crystal violet staining.
Osteoclast cultures established by the differentiation of RAW264.7 cells in wells were fixed and stained for tartrate resistant acid phosphatase (TRAP) as recommended by the manufacturer on days 4 and 5. TRAP positive cells were visualised by light microscopy and images taken with a digital camera.

Test [1] concerns osteoclasts from RAW264.7 and Human PBMC. The experiment in a line: Resorption on pre-loaded whale dentine / osteologic slides (pit formation). It counts as cell-based, murine. The settings on record: for effect on differentiation and activity of osteoclasts: summary statement.
Description: Zoledronic acid was used as control.
as §4
Human PBMCs were isolated from normal healthy donors isolated from the buffy coats acquired from the local Red Cross Blood Service. The cells were diluted in Hanks Balanced Salt Solution (HBSS) and separated by gradient centrifugation with Lymphoprep™. Isolated cells were resuspended in α MOD, 10% FCS, L-glutamine (2 mM), Hepes (20 mM), supplemented with M-CSF (25 ng/ml), 1α,25(OH)2 vitamin D3 (10 nM) and dexamethasone (10 nM) and plated into 96-well plates containing whale dentine slices, for the bone resorption assay or directly into wells for TRAP staining. The following day, media were removed and replaced with media as above, supplemented with RANKL (100 ng/ml) in the presence or absence of increasing concentrations of compounds of the invention. Medium and treatments were replaced every three days.
as §5
Whale dentine slices will be washed in extran, rinsed with distilled water, washed in 70% ethanol and dried overnight. The dentine slices mounted on stubs, carbon-coated and visualised on a Philips XL-20 scanning electron microscope, (SEM) as previously described. Images will be analysed using ImageQuant software and the area of resorption determined for each dentine slice (quadruplicate dentine slices for each treatment). Results are expected to be average resorption area +/− standard errors of the mean (SEM) and the significant differences between treatments will be determined using Students t-tests (2-tailed, unpaired).
(§6) In a separate experiment, pre-loaded bone slices (whale dentine) or commercial forms of hydroxyapatite (osteologic slides) with either free γ-tocopherol (γToc) or γ-tocopherol-bpp(OEt) (BP-γToc) and then washed away unbound drug.

A short description of test [2]: Binding to pre-loaded bone slices / hydroxyapatite after washing. The settings on record: pre-loaded whale dentine or osteologic slides, unbound drug washed away.
Description: as §6

Test [3] deals with metastatic breast cancer cell lines (MCF-7, MDA-MB231, MDA-MB231TXSA). The experiment in a line: Cell viability / antiproliferative activity, breast cancer lines. It counts as cell-based. The procedure:
as §1, §2
MCF-7, MDA-MB231 and MDA-MB231TXSA cells were seeded in 96-well-plates and allowed to attach overnight. The following day media were replaced with fresh media containing the following compounds: Both free tetraethyl methylbisphosphonate (bpp(OEt)) and bpp(OEt) in 1:1 combination with the free chromanol and the biphosphonate conjugates were tested at 5 gradual concentrations of: 0.02, 0.04, 0.06, 0.08 and 0.1 mM.
as §3

Test [4] has as its system Caspase-3 activity in MB231 breast cancer cell-line. The experiment in a line: Caspase-3 enzymatic activity assay. It counts as cell-based. The procedure: Cells were grown in 12 well-plates in the presence of IC50 concentrations of compounds of the invention or culture medium with 0.1% v/v ethanol as control and were washed with PBS and incubated with lysis buffer for 15 mins at 4° C. Lysates were centrifuged at 15000 g. 20 μl of each lysate suspension was incubated with 100 μl of protease buffer containing 10 μM of fluorescent substrate zDEVD-AFC (3 samples/lysate) for 4 hrs at room temperature. Caspase-3 enzymatic activity was measured every 1 hr by fluorescence with excitation at 405 nm and emission at 515/30 nm.
Fluorescence measurements were plotted in graphs against time and were statistically analysed by two-way ANOVA followed by Bonferroni post-tests to identify statistically significant apoptotic activities of compounds of the invention (see FIG. 3).

For `Cc1c(O)cc2c(c1C)O[C@](C)(CCC[C@H](C)CCC[C@H](C)CCCC(C)C)CC2` [γ-toc, γ-tocopherol, reference compound], in the test with MCF-7 cells (Exp.1, * denotes EC50 value, read-out: EC50 value (starred) MCF-7), the EC50 was 439 µM. The compound further returned an IC50 with MCF-7 cells (Exp.2) of 128 µM. Besides, in the test with RAW264.7 cells, the “osteoclastogenesis of Raw264.7” value is on record as “increased osteoclastogenesis”. The “effect on differentiation and activity of osteoclasts” value in test [1] is “inhibitory effect on the differentiation and activity of osteoclasts”. Also, the “binding to bone substrate / bone mineral” value in test [2] is listed as “not”.
Take `CCOP(=O)(OCC)C(CCC(=O)Oc1cc2c(c(C)c1C)OC(C)(CCCC(C)CCCC(C)CCCC(C)C)CC2)P(=O)(OCC)OCC` (stereo not drawn) [γ-toc-bpp(OEt), γ-tocopheryl bisphosphonic ester]: the values for the IC50 in the test with MCF-7 cells (Exp.1) and with MCF-7 cells (Exp.2) were 114 µM and 81.5 µM, respectively. In addition, the “antiproliferative activity compared with bpp(OEt)” value in test [3] (esterified compounds and 1:1 mixtures) was “increased”. Moreover, the “antiproliferative activity compared with γ-tocopherol” value in test [3] (upon esterification of γ-tocopherol) is listed as “increased”. The “effect on cell viability” value in test [3] (viability assays and IC50s, 72 hrs) is “reduced cell viability”. In addition, in test [4] (IC50 concentrations, two-way ANOVA with Bonferroni post-tests), the “pro-apoptotic activity (Caspase-3 activity)” value was “statistically significant pro-apoptotic activities”. Besides, in test [4] (measured every 1 hr for 4 hrs), the “time-point at which the increased Caspase-3 activity was present” value worked out at 3 h. Moreover, the “inhibition of resorption on pre-loaded substrate” value in test [1] (pre-loaded, washed, zoledronic acid as control, FIG. 5) was “inhibited resorption to an extent comparable with that seen with zoledronic acid”. Also, in test [1], the “effect on differentiation and activity of osteoclasts” value was “retains the inhibitory activity on osteoclast differentiation and bone resorption”. Further, the “binding to bone substrate / bone mineral” value in test [2] was “selectively bound the substrate”.

Broadly, the EC50 is the concentration needed to bring the measured effect to its halfway point. For orientation: IC50 means the concentration that inhibits the measured activity by half. Lower therefore signals inhibition by little substance.

The record behind these values is patent US11400160B2, “Multifunctional conjugates” (E.P.O.S IASIS Research and Development Limited, priority 2017, dated 2022).
